System: NCI-H226 complex tumor spheroids, viability
Assay: Anticancer human tumor NCI-H226 cell line growth inhibition;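 further: spheroids exposed to compound for 7 days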;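 on viability, T/C: 100% = DMSO vehicle control viability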
Conditions: for viability, T/C: stronger effect = lower value
Description: Multicellular complex tumor spheroid response to DNA repair inhibitors in combination with DNA-damaging drugs
This study explores the anticancer activities of DNA-damaging drugs and inhibitors of DNA damage repair, both as single agents and in combinations. Complex tumor spheroids comprised of malignant cells, endothelial cells and mesenchymal stem cells served as an in vitro model for human solid tumors. This model system incorporates physiologically relevant features and patient-derived or established malignant cell lines with clinically relevant genetic alterations from many tumor types. Twenty-six patient-derived or established malignant cell lines were evaluated representing sarcoma, melanoma, small cell lung cancer (SCLC), non-small cell lung cancer (NSCLC), as well as bladder, ovarian and pancreatic cancers. The concentration ranges selected for each drug and investigational agent were based upon clinically achievable concentrations if the clinical Cmax of the agent was known.
Compounds. The drugs and compounds olaparib (NSC753686), talazoparib (NSC767125), berzosertib (NSC777718), elimusertib (NSC800525), nedisertib (NSC802822), VX-984 (NSC792969), AZD-1390 (NSC803789), temozolomide (NSC362856), topotecan (NSC609699), trabectedin (NSC813783), staurosporine (NSC755774), and gemcitabine (NSC613327) were obtained from the National Cancer Institute (NCI) Developmental Therapeutics Program Chemical Repository. The FDA-approved anticancer drug set is available from the Developmental Therapeutics Program at https://dtp.cancer.gov/organization/dscb/obtaining/available_plates.htm. […] The stock solutions were prepared in dimethyl sulfoxide (DMSO, Sigma-Aldrich, St. Louis, MO, cat. D2650) at 400-fold the tested concentration and stored at -70 degrees C. Prior to their use, the stock solutions were diluted in fresh medium and the final DMSO concentration in the assay was 0.25% (v/v). All drugs and investigational agents were tested over a range starting from a high concentration at or near the clinical Cmax and decreasing in half-log increments. If the clinical Cmax for an agent had not been determined, the highest concentration tested was 10 microM.
Cell Lines. The patient-derived cancer cell (PDC) lines: 156681-154-R-J1-PDC, 283228-195-R-J1-PDC, 287954-098-R-J1-PDC, 292921-168-R-J2-PDC, 349418-098-R-PDC, 425362-245-T-J1-PDC, 556581-035-R-J1-PDC, and BL0293-F563-PDC were received from the NCI Patient-Derived Models Repository (PDMR, https://pdmr.cancer.gov). The established cell lines HS-SY-2 (RRID:CVCL_8719), MPNST, and SYO-1 (RRID:CVCL_7146) were obtained from the Sloan Kettering Institute. The alveolar soft parts sarcoma cell line ASPS-1 (RRID:CVCL_S738) was established at the NCI and grown from internal seed stocks. The following established cell lines were purchased from the American Type Culture Collection (ATCC, Manassas, VA): G-401 (ATCC, cat. CRL-1441, RRID:CVCL_0270), SW982 (ATCC, cat. HTB-93, RRID:CVCL_1734), VA-ES-BJ (ATCC, cat. CRL-2138, RRID:CVCL_1785), NCI-H719 (ATCC, cat. CRL-5837, RRID:CVCL_1582), NCI-H196 (ATCC, cat. CRL-5823, RRID:CVCL_1509), NCI-H841 (ATCC, cat. CRL-5845, RRID:CVCL_1595), NCI-H1618 (ATCC, cat. CRL-5879, RRID:CVCL_1480), NCI-H1876 (ATCC, cat. CRL-5902, RRID:CVCL_1503), DMS 114 (ATCC, cat. CRL-2066; RRID:CVCL_1174), NCI-H211 (ATCC, cat. CRL-5824; RRID:CVCL_1529), and SW 1271 (ATCC, cat. CRL-2177, RRID:CVCL_1716). The small cell lung cancer cell line COR-L88 was purchased from Sigma-Aldrich (cat. 92031917-1VL, RRID:CVCL_1141). The non-small cell lung cancer cell lines NCI-H226 (RRID:CVCL_1544) and NCI-H322M (RRID:CVCL_1557) were established at the NCI and grown from internal seed stocks. Pooled donor human umbilical vein endothelial cells (HUVEC, Lonza, cat. CC-2519) and human mesenchymal stem cells (hMSC, Lonza, cat. PT-2501) were purchased from Lonza (Walkersville, MD).
Cell Culture. All cells were maintained in an incubator at 37 degrees C and 5% CO2 with 95% humidity. […]

[1] = curve of first compound, second compound 0.003 µM

Question: Which viability, T/C (compound 0.003 µM) does the source give for `CC[C@@]1(O)C(=O)OCc2c1cc1n(c2=O)Cc2cc3c(CN(C)C)c(O)ccc3nc2-1` here?
Answer: 94.5% [middle of 10 runs]

Question: And the viability, T/C (compound 0.03 µM)?
Answer: 86% [middle of 10 runs]

Question: And the viability, T/C (compound 0.0949 µM)?
Answer: 86.1% [middle of 10 runs]

Question: What about the viability, T/C (compound 0.3 µM) of the same compound?
Answer: 66.8% [middle of 10 runs]

Question: What about the IC50 (compound alone, run of 12/02/2019) of the same compound?
Answer: > 0.3 µM

Question: What about the IC50 (compound alone, run of 12/12/2019) of the same compound?
Answer: > 0.3 µM

Question: For `CC(C)n1c(=O)n(C)c2cnc3cc(F)c(-c4ccc(OCCCN5CCCCC5)nc4)cc3c21` + CC[C@@]1(O)C(=O)OCc2c1cc1n(c2=O)Cc2cc3c(CN(C)C)c(O)ccc3nc2-1, which IC50 [1] is on record?
Answer: 6.02 µM

Question: And the IC50 (curve of first compound, second compound 0.00949 µM)?
Answer: 5.72 µM

Question: What about the IC50 (curve of first compound, second compound 0.03 µM) of the same compound?
Answer: 5.24 µM

Question: What about the IC50 (curve of first compound, second compound 0.0949 µM) of the same compound?
Answer: 4.41 µM

Question: And the IC50 (curve of first compound, second compound 0.3 µM)?
Answer: 5.01 µM

Question: And the viability, T/C (second compound 0.003 µM, first compound 0.0316 µM)?
Answer: 99.8%

Question: And the viability, T/C (second compound 0.003 µM, first compound 0.1 µM)?
Answer: 92.3%

Question: And the viability, T/C (second compound 0.003 µM, first compound 0.316 µM)?
Answer: 94.5%

Question: What about the viability, T/C (second compound 0.003 µM, first compound 1 µM) of the same compound?
Answer: 93.9%

Question: And the viability, T/C (second compound 0.003 µM, first compound 3.16 µM)?
Answer: 82.3%

Question: What about the viability, T/C (second compound 0.003 µM, first compound 10 µM) of the same compound?
Answer: 24.5%

Question: And the viability, T/C (second compound 0.00949 µM, first compound 0.0316 µM)?
Answer: 86.4%

Question: What about the viability, T/C (second compound 0.00949 µM, first compound 0.1 µM) of the same compound?
Answer: 86.5%

Question: What about the viability, T/C (second compound 0.00949 µM, first compound 0.316 µM) of the same compound?
Answer: 86.5%

Question: What about the viability, T/C (second compound 0.00949 µM, first compound 1 µM) of the same compound?
Answer: 86.3%

Question: What about the viability, T/C (second compound 0.00949 µM, first compound 3.16 µM) of the same compound?
Answer: 84%

Question: What about the viability, T/C (second compound 0.00949 µM, first compound 10 µM) of the same compound?
Answer: 17.9%

Question: And the viability, T/C (second compound 0.03 µM, first compound 0.0316 µM)?
Answer: 81.4%

Question: And the viability, T/C (second compound 0.03 µM, first compound 0.1 µM)?
Answer: 78.3%

Question: What about the viability, T/C (second compound 0.03 µM, first compound 0.316 µM) of the same compound?
Answer: 83.2%

Question: And the viability, T/C (second compound 0.03 µM, first compound 1 µM)?
Answer: 75.4%

Question: What about the viability, T/C (second compound 0.03 µM, first compound 3.16 µM) of the same compound?
Answer: 73.2%

Question: And the viability, T/C (second compound 0.03 µM, first compound 10 µM)?
Answer: 21%

Question: What about the viability, T/C (second compound 0.0949 µM, first compound 0.0316 µM) of the same compound?
Answer: 87.4%

Question: What about the viability, T/C (second compound 0.0949 µM, first compound 0.1 µM) of the same compound?
Answer: 85.3%

Question: What about the viability, T/C (second compound 0.0949 µM, first compound 0.316 µM) of the same compound?
Answer: 75.7%

Question: What about the viability, T/C (second compound 0.0949 µM, first compound 1 µM) of the same compound?
Answer: 77.9%

Question: What about the viability, T/C (second compound 0.0949 µM, first compound 3.16 µM) of the same compound?
Answer: 61.5%

Question: And the viability, T/C (second compound 0.0949 µM, first compound 10 µM)?
Answer: 22.8%

Question: What about the viability, T/C (second compound 0.3 µM, first compound 0.0316 µM) of the same compound?
Answer: 92.2%

Question: And the viability, T/C (second compound 0.3 µM, first compound 0.1 µM)?
Answer: 84.3%

Question: What about the viability, T/C (second compound 0.3 µM, first compound 0.316 µM) of the same compound?
Answer: 73.4%

Question: What about the viability, T/C (second compound 0.3 µM, first compound 1 µM) of the same compound?
Answer: 84.1%

Question: What about the viability, T/C (second compound 0.3 µM, first compound 3.16 µM) of the same compound?
Answer: 71.8%

Question: And the viability, T/C (second compound 0.3 µM, first compound 10 µM)?
Answer: 17%

Question: Which results are given for `O=C(c1cc(Cc2n[nH]c(=O)c3ccccc23)ccc1F)N1CCN(C(=O)C2CC2)CC1` + COc1cc2c(cc1O)CCNC21CSC2c3c(OC(C)=O)c(C)c4c(c3C(COC1=O)N1C(O)C3Cc5cc(C)c(OC)c(O)c5C(C21)N3C)OCO4?
Answer: IC50 (curve of first compound, second compound 30 pM): > 30 µM; IC50 (curve of first compound, second compound 94.9 pM): > 30 µM; IC50 (curve of first compound, second compound 0.0003 µM): > 30 µM; IC50 (curve of first compound, second compound 0.000949 µM): > 30 µM; IC50 [1]: < 0.0949 µM; viability, T/C (second compound 30 pM, first compound 0.0949 µM): 94.5%; viability, T/C (second compound 30 pM, first compound 0.3 µM): 109%; viability, T/C (second compound 30 pM, first compound 0.949 µM): 109%; viability, T/C (second compound 30 pM, first compound 3 µM): 108%; viability, T/C (second compound 30 pM, first compound 9.49 µM): 99.4%; viability, T/C (second compound 30 pM, first compound 30 µM): 82.5%; viability, T/C (second compound 94.9 pM, first compound 0.0949 µM): 109%; viability, T/C (second compound 94.9 pM, first compound 0.3 µM): 95%; viability, T/C (second compound 94.9 pM, first compound 0.949 µM): 105%; viability, T/C (second compound 94.9 pM, first compound 3 µM): 101%; viability, T/C (second compound 94.9 pM, first compound 9.49 µM): 99.4%; viability, T/C (second compound 94.9 pM, first compound 30 µM): 102%; viability, T/C (second compound 0.0003 µM, first compound 0.0949 µM): 115%; viability, T/C (second compound 0.0003 µM, first compound 0.3 µM): 129%; viability, T/C (second compound 0.0003 µM, first compound 0.949 µM): 126%; viability, T/C (second compound 0.0003 µM, first compound 3 µM): 118%; viability, T/C (second compound 0.0003 µM, first compound 9.49 µM): 112%; viability, T/C (second compound 0.0003 µM, first compound 30 µM): 93.2%; viability, T/C (second compound 0.000949 µM, first compound 0.0949 µM): 126%; viability, T/C (second compound 0.000949 µM, first compound 0.3 µM): 112%; viability, T/C (second compound 0.000949 µM, first compound 0.949 µM): 100%; viability, T/C (second compound 0.000949 µM, first compound 3 µM): 103%; viability, T/C (second compound 0.000949 µM, first compound 9.49 µM): 87.4%; viability, T/C (second compound 0.000949 µM, first compound 30 µM): 49.5%; viability, T/C (second compound 0.003 µM, first compound 0.0949 µM): 2.43%; viability, T/C (second compound 0.003 µM, first compound 0.3 µM): 16.1%; viability, T/C (second compound 0.003 µM, first compound 0.949 µM): 1.13%; viability, T/C (second compound 0.003 µM, first compound 3 µM): 2.74%; viability, T/C (second compound 0.003 µM, first compound 9.49 µM): 0.95%; viability, T/C (second compound 0.003 µM, first compound 30 µM): 0.69%

From PubChem BioAssay AID1845210 (Molecular Pharmacology Branch, DTP, NCI, 2023)
